Reference: PMC12267056 (Nature, 2025)
Residue numbers refer to the chain shown, from its start. Values joined by “and” are separate entries in the source; they are usually repeats but may differ in a detail not shown here. Equal entries are not always repeated.

Legend:
SLC35B1 Q113F = molecular target: T1, SLC35B1 Q113F (Homo sapiens, UniProt P78383, Q113F); conditions: variant Q113F; 1 mM ATP
T1 sequence (P78383 1-322 Q113F): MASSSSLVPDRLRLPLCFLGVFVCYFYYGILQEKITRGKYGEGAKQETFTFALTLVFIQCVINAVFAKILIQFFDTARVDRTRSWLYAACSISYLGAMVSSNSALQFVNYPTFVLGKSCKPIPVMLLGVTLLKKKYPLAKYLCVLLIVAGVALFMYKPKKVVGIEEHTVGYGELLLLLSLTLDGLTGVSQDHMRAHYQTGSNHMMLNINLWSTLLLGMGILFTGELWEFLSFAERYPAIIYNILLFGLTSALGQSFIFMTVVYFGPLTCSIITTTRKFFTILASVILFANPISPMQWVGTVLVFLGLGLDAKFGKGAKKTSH

SLC35B1 Q190A = molecular target: T2, SLC35B1 Q190A (Homo sapiens, UniProt P78383, Q190A); conditions: variant Q190A; 1 mM ATP
T2 sequence (P78383 1-322 Q190A): T1 sequence (P78383 1-322 Q113F) with F113Q, Q190A

SLC35B1 R194A = SLC35B1 R194A (Homo sapiens, UniProt P78383, R194A); conditions: variant R194A; 1 mM ATP
Chain of SLC35B1 R194A (P78383 whole entry R194A): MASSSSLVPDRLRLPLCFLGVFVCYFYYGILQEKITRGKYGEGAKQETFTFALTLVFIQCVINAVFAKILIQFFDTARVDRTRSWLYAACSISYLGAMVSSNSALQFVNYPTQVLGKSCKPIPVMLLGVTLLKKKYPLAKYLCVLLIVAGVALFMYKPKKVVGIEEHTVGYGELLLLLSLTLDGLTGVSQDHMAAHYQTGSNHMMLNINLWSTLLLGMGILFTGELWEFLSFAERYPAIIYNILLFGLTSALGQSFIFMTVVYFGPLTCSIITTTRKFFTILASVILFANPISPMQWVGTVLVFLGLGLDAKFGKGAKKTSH

SLC35B1 I257E [1] = molecular target: T3, SLC35B1 I257E (Homo sapiens, UniProt P78383, I257E); conditions: variant I257E; 1 mM ATP
T3 sequence (P78383 1-322 I257E): T1 sequence (P78383 1-322 Q113F) with F113Q, I257E

SLC35B1 T273A = SLC35B1 T273A (Homo sapiens, UniProt P78383, T273A); conditions: variant T273A; 1 mM ATP
Chain of SLC35B1 T273A (P78383 whole entry T273A): as the sequence (P78383 whole entry R194A) above, with A194R, T273A counted along it

SLC35B1 R276A [2] = molecular target: T4, SLC35B1 R276A (Homo sapiens, UniProt P78383, R276A); conditions: variant R276A; 1 mM ATP
T4 sequence (P78383 1-322 R276A): T1 sequence (P78383 1-322 Q113F) with F113Q, R276A

SLC35B1 K277A = molecular target: T5, SLC35B1 K277A (Homo sapiens, UniProt P78383, K277A); conditions: variant K277A; 1 mM ATP
T5 sequence (P78383 1-322 K277A): T1 sequence (P78383 1-322 Q113F) with F113Q, K277A

[3] = molecular target: T6, human SLC35B1 (wild type) (Homo sapiens, UniProt P78383); conditions: single temperature 37 °C
T6 sequence (P78383 1-322): T1 sequence (P78383 1-322 Q113F) with F113Q

SLC35B1 R276A [4] = molecular target: T4, SLC35B1 R276A; conditions: variant R276A; 37 °C
SLC35B1 I257E [5] = molecular target: T3, SLC35B1 I257E; conditions: variant I257E; 37 °C
SLC35B1 C269A = molecular target: T7, SLC35B1 C269A (Homo sapiens, UniProt P78383, C269A); conditions: variant C269A; 37 °C
T7 sequence (P78383 1-322 C269A): T1 sequence (P78383 1-322 Q113F) with F113Q, C269A

crude ER microsomes = conditions: read-out: Km for ATP import into crude ER microsomes; cited from earlier work
BiP = conditions: cited from earlier work
SLC35B1 K120A = SLC35B1 K120A (Homo sapiens, UniProt P78383, K120A); assay: biochemical; conditions: read-out: ΔTm, individual titrations (source data), variant K120A; 1 mM ATP
Chain of SLC35B1 K120A (P78383 whole entry K120A): as the sequence (P78383 whole entry R194A) above, with K120A, A194R counted along it

[6] = molecular target: T6, human SLC35B1 (wild type); assay type: binding; set-up: made in house; host or cells: Saccharomyces cerevisiae FGY217

## Nc1ncnc2c1ncn2[C@@H]1O[C@H](COP(=O)(O)OP(=O)(O)OP(=O)(O)O)[C@@H](O)[C@H]1O [ATP]
SLC35B1 Q113F
  ΔTm, individual titrations (source data): 6.34
SLC35B1 Q190A
  ΔTm, individual titrations (source data): 5.9
SLC35B1 R194A
  DTM (ΔTm with ATP): robust ATP binding
SLC35B1 I257E [1]
  ΔTm, individual titrations (source data): 1.4
SLC35B1 T273A
  ΔTm, individual titrations (source data): 2.49
SLC35B1 R276A [2]
  ΔTm, individual titrations (source data): 0.15 and 0.2
SLC35B1 K277A
  ΔTm, individual titrations (source data): 2.51
[3]
  Concentration of maximal thermostabilization: 1 mM
SLC35B1 R276A [4]
  Concentration-dependent ATP thermostabilization: no clear thermostabilization
SLC35B1 I257E [5]
  Concentration-dependent ATP thermostabilization: severely diminished
SLC35B1 C269A
  Concentration-dependent ATP thermostabilization: still able to interact with ATP
Crude ER microsomes
  Km: 3 to 5 µM and 4 µM
BiP
  kcat of BiP: 0.000217 s⁻¹
SLC35B1 K120A
  ΔTm at 1000 µM: 1.17 °C
[6]; 1 mM nucleotide, purified wild-type SLC35B1–GFP
  ΔTm (average melting temperature increase): 5.2 °C
[6]; temperature 40, 1 mM substrate
  GFP fluorescence after heating (source data Fig 1B): 49.9464
